Assay results from patent US7169756B2, “Streptogramin antibiotics” (priority 2005, dated 2007).
Converted amounts (≈) assume the structure as drawn. Like-named read-outs stand apart in the source and are kept apart here. Numbered stars: 1 amine (or outer) side, 2 acyl side, 3 side chain; on linkers, the order of the positions; unused ones are H or OH. Bridge positions count the residues as written; N and C are the ends. Square brackets hold non-standard residues; d marks the D form. Peptide text beside a SMILES is read from it. * marks the point of attachment. X1 = O=C1C[C@@H](C(=O)[*:2])N([*:1])C[C@H]1CS[C@@H]1CN2CCC1CC2; NMePhe(4-NMe2) = CN[C@@H](Cc1ccc(N(C)C)cc1)C(=O)O; Picolinoyl(3-OH) = O=C(c1ncccc1O)*; Phg = N[C@H](C(=O)O)c1ccccc1; Orn = NCCC[C@H](N)C(=O)O; dAbu = CC[C@@H](N)C(=O)O; Dap = NC[C@H](N)C(=O)O

Tests used:
B. subtilis 1A752 [1] = test: bacteriostatic or bactericidal action; type: cell-based, Bacillus subtilis
Bacillus subtilis = test: growth inhibition, text summary of disk assay; type: cell-based; conditions: strain not given
Method: (§1) The antibiotic activity of the peptides synthesized in this study was initially assayed using a disk assay where samples were applied to sterile paper disks placed on a fresh lawn of bacterial culture on appropriate agar plates as required by the organism. These were then incubated for 16 hr at 37° C. and the zone of growth inhibition surrounding the disks recorded. For quantitative assessment of antibiotic activity in liquid culture, the minimal inhibitory concentration (MIC) of peptides was determined by serial dilution studies. The peptides and standard antibiotics were dissolved in DMSO and the final concentration of DMSO in the liquid cultures was 5%. Both S. aureus RN4220 and E. coli BAS901 were able to grow efficiently at this level of DMSO.
(§2) Crude material from the initial synthesis reactions was used to test the potential of the analogues as antibiotics in susceptibility assays where a solution of the compound was placed on a paper disk on a lawn of bacteria. As described above, E. coli BAS901 is deficient in the Imp/OstA protein, an outer membrane protein, involved in cell envelope biogenesis (1, 5). […] The antibiotic activity of the peptides synthesized in this study was initially assayed using a disk assay where samples were applied to sterile paper disks placed on a fresh lawn of bacterial culture on Tryptic Soya, Luria Broth, or Brain Heart Infusion Agar plates. These were then incubated for 16 hrs at 37° C. and the zone of growth inhibition surrounding the disks recorded.

Enterococcus faecalis = test: growth inhibition, text summary of disk assay; type: cell-based; conditions: strain not given
Method: as §1, §2

[2] = test system: Staphylococcus epidermidis; test: growth inhibition, text summary of disk assay; type: cell-based; conditions: strain not given
Method: as §1, §2

Streptococcus pneumoniae = test: growth inhibition, text summary of disk assay; type: cell-based; conditions: strain not given
Method: as §1, §2

E. coli BAS901 [3] = test: checker-board synergy test with dalfopristin; type: cell-based, Escherichia coli; conditions: microtiter plates, checker-board technique
Text: (§3) Quinupristin and dalfopristin act in a synergistic manner.

B. subtilis 1A752 [4] = test: checker-board synergy test with dalfopristin; type: cell-based, Bacillus subtilis; conditions: microtiter plates, checker-board technique
Text: as §3

E. coli BAS901 [5] = test: bacteriostatic or bactericidal action; type: cell-based, Escherichia coli
Vgb = target: T1, Vgb (Staphylococcus aureus, UniProt P17978); test: inhibition of the streptogramin inactivating enzyme Vgb; type: biochemical; conditions: concentrations of up to 0.4 mM
T1 construct: made in house
Method: On-resin chemical cyclization of 5 provided sufficient material for more extensive analysis of antibacterial activity and investigation of its ability to inhibit the streptogramin inactivating enzyme Vgb. This enzyme however was insensitive to 5 in concentrations of up to 0.4 mM. […] Regardless of the actual mechanism, the design of these streptogramin-tyrocidine chimeras of the present invention result in antibiotics that are not recognized by a streptogramin inactivation enzyme.

[6] = test system: Enterococcus faecalis (ATCC 29212); test: microbe, parasite or virus in culture; type: cell-based
Method: as §1

[7] = test system: Staphylococcus epidermidis (ATCC 12228); test: microbe, parasite or virus in culture; type: cell-based
Method: as §1

[8] = test system: Staphylococcus aureus RN4220/pJIM2246ΩermB; test: microbe, parasite or virus in culture; type: cell-based
Method: as §1

[9] = test system: Staphylococcus saprophyticus (ATCC 15305); test: microbe, parasite or virus in culture; type: cell-based
Method: as §1

[10] = test system: Staphylococcus aureus (ATCC 29213); test: microbe, parasite or virus in culture; type: cell-based
Method: as §1

E. coli BAS901/pUC19ermB = test: microbe, parasite or virus in culture; type: cell-based, Escherichia coli
Text: In order to test the effects of 5 against E. coli BAS901 harboring ermB, the 23S rRNA methyltransferase, the plasmid pJIM2246 ΩermB [13] was purified from Staphylococcus aureus RN4220/pJIM2246 ΩermB. ErmB was subsequently amplified from pJIM2246 ΩermB via polymerase chain reaction using primers 5′-[…] AND 5′-[…] (engineered restriction enzyme sites are underlined). The amplified product was subcloned into pCR4Blunt-TOPO (Invitrogen) and transformed into E. coli XL10 GOLD, resulting in ermB being positioned in frame with the lacZ gene. This construct, designated pTOPOerm, was then used as template in the reamplification of ermB using a new forward primer containing a strong ribosomal binding consensus sequence (shown in italics); 5-[…]. […]
as §1, with “The peptides and standard antibiotics were dissolved in DMSO and the final concentration of DMSO in the liquid cultures was 5%. Both S. aureus RN4220 and E. coli BAS901 were able to grow efficiently at this level of DMSO.” left out

Micrococcus luteus = test: disk assay, zone of growth inhibition; type: cell-based
Method: as §1, §2

[11] = test system: Enterococcus faecium CP54-32; test: disk assay, zone of growth inhibition; type: cell-based
Method: as §1, §2

Bacillus subtilis 1A752 = test: disk assay, zone of growth inhibition; type: cell-based
Method: as §1, §2

[12] = test system: S. saprophyticus (ATCC 15305); test: disk assay, zone of growth inhibition; type: cell-based, Staphylococcus saprophyticus
Method: as §1
(§4) Crude material from the initial synthesis reactions was used to test the potential of the analogues as antibiotics in susceptibility assays where a solution of the compound was placed on a paper disk on a lawn of bacteria. As described above, E. coli BAS901 is deficient in the Imp/OstA protein, an outer membrane protein, involved in cell envelope biogenesis (1, 5). […] These were then incubated for 16 hrs at 37° C. and the zone of growth inhibition surrounding the disks recorded.

Escherichia coli BAS901 = test: disk assay, zone of growth inhibition; type: cell-based; conditions: Escherichia coli BAS901, hyperpermeable, 16 hr at 37° C.
Method: Partially purified material from these reactions was used to test their antibiotic properties in disk diffusion susceptibility assays using E. coli BAS901.
as §1, §4

E. coli BAS901/pUC19 = test: disk assay, zone of growth inhibition; type: cell-based, Escherichia coli
Text: A hyperpermeable E. coli strain, E. coli BAS901, harboring a plasmid constitutively expressing Vgb was created for in vivo studies. The plasmids pVGB, described previously in [14], and […] were digested with Xbal and BamHI, to yield an approximately 1 kb fragment containing a ribosomal binding site upstream of vgb, and linearized pUC19 backbone, respectively. The vgb fragment was then subcloned into the linearized pUC19 backbone downstream of pLac yielding pUC19-VGB. Both pUC19-VGB and pUC19 were transformed E. coli BAS901.
as §1, §2

B. subtilis L5706 = test: disk assay, zone of growth inhibition; type: cell-based, Bacillus subtilis
Method: as §1, §4

B. subtilis W23 = test: disk assay, zone of growth inhibition; type: cell-based, Bacillus subtilis
Method: as §1, §4

T1 sequence (P17978 whole entry): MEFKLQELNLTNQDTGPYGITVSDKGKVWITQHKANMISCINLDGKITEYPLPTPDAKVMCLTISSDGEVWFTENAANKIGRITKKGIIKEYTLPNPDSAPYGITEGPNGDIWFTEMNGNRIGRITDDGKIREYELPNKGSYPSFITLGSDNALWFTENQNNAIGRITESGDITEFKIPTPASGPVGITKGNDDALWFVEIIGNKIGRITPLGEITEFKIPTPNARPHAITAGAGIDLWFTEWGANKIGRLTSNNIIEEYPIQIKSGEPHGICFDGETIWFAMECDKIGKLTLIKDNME

CC(C)C[C@@H]1NC(=O)[C@H](CCCN)NC(=O)[C@H]([C@@H](C)O)NC(=O)[C@@H](NC(=O)c2ncccc2O)CNC(=O)[C@H](Cc2ccccc2)NC(=O)[C@@H]2CCCN2C(=O)[C@@H](Cc2ccccc2)NC1=O [Compound 5] ({Picolinoyl(3-OH)}-[Dap]T[Orn]L[dF]PF; lactam 1-C)
bacteriostatic or bactericidal (B. subtilis 1A752 [1]): bacteriostatic and not bactericidal | growth inhibition activity (Bacillus subtilis): active | growth inhibition activity (Enterococcus faecalis): active | growth inhibition activity [2]: active | growth inhibition activity (Streptococcus pneumoniae): active | synergy with dalfopristin (E. coli BAS901 [3]): additive, not synergistic | synergy with dalfopristin (B. subtilis 1A752 [4]): additive, not synergistic | bacteriostatic or bactericidal (E. coli BAS901 [5]): bacteriostatic and not bactericidal | inhibition of Vgb (Vgb): insensitive | MIC ([6]; ATCC 29212, 16 h): 128 µg/mL (≈ 138 µM) | MIC ([7]; ATCC 12228, 16 h): 64 µg/mL (≈ 69 µM) | MIC ([8]; Staphylococcus aureus RN4220/pJIM2246ΩermB): 256 µg/mL (≈ 276 µM) | MIC ([9]; ATCC 15305, 16 h): 64 µg/mL (≈ 69 µM) | MIC [10]: 256 µg/mL (≈ 276 µM) | MIC (E. coli BAS901/pUC19ermB; E. coli BAS901/pUC19ermB (Erm methyltransferase)): 32 µg/mL (≈ 34.5 µM)

CC[C@H]1NC(=O)[C@@H](NC(=O)c2ncccc2O)[C@@H](C)OC(=O)[C@H](c2ccccc2)NC(=O)[C@@H]2CC(=O)[C@H](CS[C@@H]3CN4CCC3CC4)CN2C(=O)[C@H](Cc2ccc(N(C)C)cc2)N(C)C(=O)[C@@H]2CCCN2C1=O [Quinupristin, quinupristin, reference compound] ({Picolinoyl(3-OH)}-T[dAbu]P[NMePhe(4-NMe2)][X1][Phg]; ester 1-C)
Zone of Inhibition (Micrococcus luteus): 2.7 cm | Zone of Inhibition [11]: 1.8 cm | Zone of Inhibition (Bacillus subtilis 1A752): 1.8 cm | Zone of Inhibition [12]: 2.3 cm | Zone of Inhibition (Escherichia coli BAS901): 2.2 cm | Zone of Inhibition (E. coli BAS901/pUC19): 2.2 cm | Zone of Inhibition (E. coli BAS901/pUC19; listed as quinupristin): exhibit a zone of inhibition | Zone of Inhibition (B. subtilis L5706): 2.1 cm | Zone of Inhibition (B. subtilis W23): 2.1 cm | MIC ([6]; ATCC29212, Enterococcus faecalis (ATCC 29212), read-out: MIC): 8 µg/mL (≈ 7.83 µM) | MIC ([7]; ATCC12228, Staphylococcus epidermidis (ATCC 12228), read-out: MIC): 0.5 µg/mL (≈ 0.489 µM) | MIC ([8]; Staphylococcus aureus): 8 µg/mL (≈ 7.83 µM) | MIC ([9]; ATCC15305, Staphylococcus saprophyticus (ATCC 15305), read-out: MIC): 8 µg/mL (≈ 7.83 µM) | MIC ([10]; ATCC29213, read-out: MIC): 4 µg/mL (≈ 3.91 µM) | MIC (E. coli BAS901/pUC19ermB; Escherichia coli, BAS901/PUC19ERMB): 16 µg/mL (≈ 15.7 µM)
